Assay results: patent publication US20240325399A1, “PHARMACEUTICAL COMPOSITION FOR PREVENTING OR TREATING CHOLANGITIS OR LIVER DISEASE CAUSED BY CHOLANGITIS COMPRISING ADENOSINE DERIVATIVE” (FUTURE MEDICINE CO., LTD., priority 2021, published 2024)

What was measured:
[1] = system: TPA-induced inflammation of the mouse ear; assay: Anti-inflammatory activity, TPA-induced inflammation of the mouse ear; assay type: in vivo, ICR mice; settings: for Anti-inflammatory activity (TPA-induced mouse ear inflammation): 0.5% in acetone, 20 μl, topical to ear
Protocol: The adenosine derivatives of the present invention were examined for anti-inflammatory activity in the following animal test. Seven-week-old male ICR mice were treated with TPA (12-O-tetradecanoylphorbol-13-acetate, 20 l) in the right ear. […] Hydrocortisone was used at the same concentration as a control.
6 hrs after treatment with TPA, the mice were secondarily treated with the adenosine derivatives of the present invention. 24 hrs after TPA treatment, test animals were euthanized using a cervical dislocation method. Samples were obtained from the right ear using a 6 mm diameter punch. The activity was observed by measuring the ear sample using a microbalance. Percentages of inhibition were calculated using the following Equation 1. The compositions and amounts used in these experiments are summarized in Tables 14 to 17 and the anti-inflammatory activities thereof are shown in FIGS. 10 to 13.

ICR mice = assay: Toxicity after intraperitoneal injection, 24 hrs observation, mice; assay type: in vivo; settings: intraperitoneal 20, 10 and 1 mg/kg
Protocol: (§1) The Adenosine Derivative of the present invention were assayed for cytotoxicity in animals.

Sprague Dawley rats = assay: Toxicity after intraperitoneal injection, 24 hrs observation, rats; assay type: in vivo; settings: SD rats, intraperitoneal 20, 10 and 1 mg/kg
Protocol: as §1

[2] = biological target: T1, human A1 adenosine receptor (hA1) (Homo sapiens, UniProt P30542); assay: Binding affinity for A1 adenosine receptor ([3H]CCPA, CHO cells); settings: percentage inhibition of specific binding in the presence of 10 μM of the unlabeled ligand NECA
T1 construct: expressed in transfected cells; host or cells: CHO cells (ATCC No. CCL-61)
T1 sequence (P30542 1-326): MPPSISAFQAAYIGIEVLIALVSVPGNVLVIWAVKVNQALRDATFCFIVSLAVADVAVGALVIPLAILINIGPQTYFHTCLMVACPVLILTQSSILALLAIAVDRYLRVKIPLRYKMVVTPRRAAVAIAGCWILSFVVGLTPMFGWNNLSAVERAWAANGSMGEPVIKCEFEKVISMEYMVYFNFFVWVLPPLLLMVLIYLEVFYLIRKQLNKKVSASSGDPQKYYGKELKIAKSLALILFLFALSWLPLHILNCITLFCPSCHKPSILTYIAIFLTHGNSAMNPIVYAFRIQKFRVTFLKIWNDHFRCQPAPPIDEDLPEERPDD
Protocol: CHO cells (ATCC No. CCL-61), in which A1 and A3 adenosine receptors were expressed, were cultured in F-12 media (Gibco, U.S.A.) supplemented with 10% fetal bovine serum (FBS) and penicillin/streptomycin (100 units/ml and 100 g/ml), at 37° C. in a 5% CO2 atmosphere. […] Incubation for 1 hr in a 37° C. incubator was followed by rapid filtration in a vacuum using a cell collector (TOMTEC, U.S.A.). Subsequently, the test tubes were washed three times with 3 ml of the buffer before radioactivity was measured using a γ-counter. […] Ki for binding affinity was determined by subtracting the non-specific binding value from the total binding value. On the basis of the specific binding values, the samples were analyzed for binding affinity to various adenosine receptors.

[3] = biological target: T2, human A2A adenosine receptor (hA2A) (Homo sapiens, UniProt P29274); assay: Binding affinity for A2A adenosine receptor ([3H]CGS-21680, HEK 293 cell); settings: percentage inhibition of specific binding of 10 μM labeled ligand in the presence of 10 μM of the unlabeled ligand NECA
T2 construct: expressed in transfected cells; host or cells: HEK 293 cell
Protocol: Each of the compounds synthesized in the examples was measured for IC50 at least 6 different concentrations, and the measurements were analyzed using SigmaPlot software to determine Ki values.

[4] = patients with liver cirrhosis; cited from earlier work

T2 sequence (P29274 whole entry): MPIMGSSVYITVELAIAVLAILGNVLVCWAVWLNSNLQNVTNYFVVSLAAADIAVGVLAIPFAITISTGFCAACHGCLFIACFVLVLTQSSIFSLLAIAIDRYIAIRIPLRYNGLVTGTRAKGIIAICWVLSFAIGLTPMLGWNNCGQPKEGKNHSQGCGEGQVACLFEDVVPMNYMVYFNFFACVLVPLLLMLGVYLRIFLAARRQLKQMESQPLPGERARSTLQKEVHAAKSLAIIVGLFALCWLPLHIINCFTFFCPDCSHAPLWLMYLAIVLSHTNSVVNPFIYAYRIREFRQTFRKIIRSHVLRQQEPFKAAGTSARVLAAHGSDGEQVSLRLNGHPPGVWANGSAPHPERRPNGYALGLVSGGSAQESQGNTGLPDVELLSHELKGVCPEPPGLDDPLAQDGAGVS

## O[C@@H]1[C@H](O)CS[C@H]1n1cnc2c(NCc3cccc(F)c3)nc(Cl)nc21 [Example 1, (2R,3R,4S)-2-(2-chloro-6-(3-fluorobenzylamino)-9H-purin-9-yl)tetrahydrothiophen-3,4-diol]
[1]
  Anti-inflammatory activity (TPA-induced mouse ear inflammation): increased

## O[C@@H]1[C@H](O)CS[C@H]1n1cnc2c(NCc3cccc(Cl)c3)nc(Cl)nc21 [Example 2, (2R,3R,4S)-2-(2-chloro-6-(3-chlorobenzylamino)-9H-purin-9-yl)tetrahydrothiophen-3,4-diol]
ICR mice
  Weight gain or feed intake versus control group: No difference in weight gain or feed intake
Sprague Dawley rats
  Weight gain or feed intake versus control group: No difference in weight gain or feed intake
[2]
  % inhibition of specific binding, hA1: 37.9%
[3]
  % inhibition of specific binding, hA2A: 17.7%

## COc1ccc(Cl)cc1CNc1nc(Cl)nc2c1ncn2[C@@H]1SC[C@@H](O)[C@H]1O [Example 6, (2R,3R,4S)-2-(2-chloro-6-(5-chloro-2-methoxybenzylamino)-9H-purin-9-yl)tetrahydrothiophen-3,4-diol]
[1]; 0.5% in a mixture of distilled water and acetone (1:4)
  Percentage of inflammation inhibition: 34%
[1]
  Anti-inflammatory activity (TPA-induced mouse ear inflammation): increased

## O[C@@H]1[C@H](O)CO[C@H]1n1cnc2c(NCc3cccc(I)c3)nc(Cl)nc21 [Example 16, (2R,3R,4R)-2-(2-chloro-6-(3-iodobenzylamino)-9H-purin-9-yl)tetrahydrofuran-3,4-diol]
[1]; 0.5% in a mixture of DMSO and acetone (1:9)
  Percentage of inflammation inhibition: 79%

## CC[C@H]1[C@@H](O)[C@@H]2[C@H](CC[C@]3(C)[C@@H]([C@H](C)CCC(=O)O)CC[C@@H]23)[C@@]2(C)CC[C@@H](O)C[C@@H]12 [OCA, obeticholic acid]
[4]
  Liver safety in patients: may induce acute liver failure in patients with liver cirrhosis
